According to PubChem BioAssay (NCI):
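Results reflect a 48-hour exposure of cells in 96-well plates to compound at five concentrations. TGI denotes the concentration required for complete inhibition of growth.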

Legend:
Assay in all cases: NCI anticancer screen, dose series, 48 h
IGROV1 ovarian = test system: IGROV1 ovarian
OVCAR-5 ovarian = test system: OVCAR-5 ovarian
CCRF-CEM leukemia = test system: CCRF-CEM leukemia
NCI-H460 lung = test system: NCI-H460 lung
M14 melanoma = test system: M14 melanoma
DMS 273 small cell lung = test system: DMS 273 small cell lung
COLO 205 colon = test system: COLO 205 colon
HOP-62 NSCLC = test system: HOP-62 NSCLC
SW-620 colon = test system: SW-620 colon
RPMI-8226 leukemia = test system: RPMI-8226 leukemia
MOLT-4 leukemia = test system: MOLT-4 leukemia
A498 renal = test system: A498 renal
SNB-78 CNS = test system: SNB-78 CNS
KM12 colon = test system: KM12 colon
UACC-62 melanoma = test system: UACC-62 melanoma
SF-295 CNS = test system: SF-295 CNS
K-562 leukemia = test system: K-562 leukemia
786-0 renal = test system: 786-0 renal
HCT-15 colon = test system: HCT-15 colon
RXF 393 renal = test system: RXF 393 renal
SK-MEL-5 melanoma = test system: SK-MEL-5 melanoma
MALME-3M melanoma = test system: MALME-3M melanoma
HCC-2998 colon = test system: HCC-2998 colon
OVCAR-3 ovarian = test system: OVCAR-3 ovarian
NCI-H23 lung = test system: NCI-H23 lung
LXFL 529 NSCLC = test system: LXFL 529 NSCLC
TK-10 renal = test system: TK-10 renal
A549 NSCLC = test system: A549 NSCLC
NCI-H522 lung = test system: NCI-H522 lung
U251 CNS = test system: U251 CNS
EKVX NSCLC = test system: EKVX NSCLC
SF-539 CNS = test system: SF-539 CNS
CAKI-1 renal = test system: CAKI-1 renal
SK-MEL-2 melanoma = test system: SK-MEL-2 melanoma
OVCAR-4 ovarian = test system: OVCAR-4 ovarian
SNB-75 CNS = test system: SNB-75 CNS
NCI-H226 lung = test system: NCI-H226 lung
KM20L2 colon = test system: KM20L2 colon
DLD-1 colon = test system: DLD-1 colon
XF 498 CNS = test system: XF 498 CNS
HL-60(TB) leukemia = test system: HL-60(TB) leukemia
UO-31 renal = test system: UO-31 renal
HT29 colon = test system: HT29 colon
SK-OV-3 ovarian = test system: SK-OV-3 ovarian
SF-268 CNS = test system: SF-268 CNS
HCT-116 colon = test system: HCT-116 colon
ACHN renal = test system: ACHN renal
LOX IMVI melanoma = test system: LOX IMVI melanoma
UACC-257 melanoma = test system: UACC-257 melanoma
SK-MEL-28 melanoma = test system: SK-MEL-28 melanoma
SN12C renal = test system: SN12C renal
M19-MEL melanoma = test system: M19-MEL melanoma
OVCAR-8 ovarian = test system: OVCAR-8 ovarian
SNB-19 CNS = test system: SNB-19 CNS
HOP-92 NSCLC = test system: HOP-92 NSCLC
SR leukemia = test system: SR leukemia
DMS 114 small cell lung = test system: DMS 114 small cell lung
HOP-18 NSCLC = test system: HOP-18 NSCLC

## COC1=CCC=C(C[C@@H]2NCCc3cc(OC)c(OC)cc32)C1
IGROV1 ovarian
  TGI: > 100 µM
OVCAR-5 ovarian
  TGI: > 100 µM
CCRF-CEM leukemia
  TGI: > 100 µM
NCI-H460 lung
  TGI: > 100 µM
M14 melanoma
  TGI: > 100 µM
DMS 273 small cell lung
  TGI: > 100 µM
COLO 205 colon
  TGI: > 100 µM
HOP-62 NSCLC
  TGI: > 100 µM
SW-620 colon
  TGI: > 100 µM
RPMI-8226 leukemia
  TGI: > 100 µM
MOLT-4 leukemia
  TGI: > 100 µM
A498 renal
  TGI: > 100 µM
SNB-78 CNS
  TGI: > 100 µM
KM12 colon
  TGI: > 100 µM
UACC-62 melanoma
  TGI: > 100 µM
SF-295 CNS
  TGI: > 100 µM
K-562 leukemia
  TGI: > 100 µM
786-0 renal
  TGI: > 100 µM
HCT-15 colon
  TGI: > 100 µM
RXF 393 renal
  TGI: > 100 µM
SK-MEL-5 melanoma
  TGI: > 100 µM
MALME-3M melanoma
  TGI: > 100 µM
HCC-2998 colon
  TGI: > 100 µM
OVCAR-3 ovarian
  TGI: > 100 µM
NCI-H23 lung
  TGI: > 100 µM
LXFL 529 NSCLC
  TGI: > 100 µM
TK-10 renal
  TGI: > 100 µM
A549 NSCLC
  TGI: > 100 µM
NCI-H522 lung
  TGI: > 100 µM
U251 CNS
  TGI: > 100 µM
EKVX NSCLC
  TGI: > 100 µM
SF-539 CNS
  TGI: > 100 µM
CAKI-1 renal
  TGI: > 100 µM
SK-MEL-2 melanoma
  TGI: > 100 µM
OVCAR-4 ovarian
  TGI: > 100 µM
SNB-75 CNS
  TGI: > 100 µM
NCI-H226 lung
  TGI: > 100 µM
KM20L2 colon
  TGI: > 100 µM
DLD-1 colon
  TGI: > 100 µM
XF 498 CNS
  TGI: > 100 µM
HL-60(TB) leukemia
  TGI: > 100 µM
UO-31 renal
  TGI: > 100 µM
HT29 colon
  TGI: > 100 µM
SK-OV-3 ovarian
  TGI: > 100 µM
SF-268 CNS
  TGI: > 100 µM
HCT-116 colon
  TGI: > 100 µM
ACHN renal
  TGI: > 100 µM
LOX IMVI melanoma
  TGI: > 100 µM
UACC-257 melanoma
  TGI: > 100 µM
SK-MEL-28 melanoma
  TGI: > 100 µM
SN12C renal
  TGI: > 100 µM
M19-MEL melanoma
  TGI: > 100 µM
OVCAR-8 ovarian
  TGI: > 100 µM
SNB-19 CNS
  TGI: > 100 µM
HOP-92 NSCLC
  TGI: > 100 µM

## CC1(C)C(O)C[C@@H](O)[C@@]2(C)C1CC[C@]1(C)C2C[C@@H](O)[C@@H]2C([C@@]3(C)CC[C@@H](C(C)(C)O)O3)CCC21C (some centres not stated)
IGROV1 ovarian
  TGI: 28.1 µM
OVCAR-5 ovarian
  TGI: 30.7 µM
CCRF-CEM leukemia
  TGI: > 66.1 µM
NCI-H460 lung
  TGI: 35.9 µM
M14 melanoma
  TGI: 27.7 µM
DMS 273 small cell lung
  TGI: 27.7 µM
COLO 205 colon
  TGI: 30 µM
SR leukemia
  TGI: > 100 µM
HOP-62 NSCLC
  TGI: 30.3 µM
SW-620 colon
  TGI: 30.5 µM
RPMI-8226 leukemia
  TGI: 66.5 µM
MOLT-4 leukemia
  TGI: 67.7 µM
A498 renal
  TGI: 34.9 µM
SNB-78 CNS
  TGI: 43.8 µM
KM12 colon
  TGI: 30.6 µM
UACC-62 melanoma
  TGI: 22.6 µM
SF-295 CNS
  TGI: 30.2 µM
K-562 leukemia
  TGI: > 100 µM
786-0 renal
  TGI: 30.1 µM
HCT-15 colon
  TGI: 25.1 µM
RXF 393 renal
  TGI: 27.1 µM
SK-MEL-5 melanoma
  TGI: 22.6 µM
MALME-3M melanoma
  TGI: 31.8 µM
HCC-2998 colon
  TGI: 31.4 µM
OVCAR-3 ovarian
  TGI: 29.4 µM
NCI-H23 lung
  TGI: 35.3 µM
LXFL 529 NSCLC
  TGI: 22.4 µM
TK-10 renal
  TGI: > 62.1 µM
A549 NSCLC
  TGI: 37 µM
NCI-H522 lung
  TGI: 27.8 µM
U251 CNS
  TGI: 25.5 µM
EKVX NSCLC
  TGI: 53.9 µM
SF-539 CNS
  TGI: 27.5 µM
CAKI-1 renal
  TGI: 42.1 µM
SK-MEL-2 melanoma
  TGI: 28.9 µM
OVCAR-4 ovarian
  TGI: 37.9 µM
SNB-75 CNS
  TGI: 29.7 µM
NCI-H226 lung
  TGI: 34.7 µM
KM20L2 colon
  TGI: 31.2 µM
DLD-1 colon
  TGI: 31.5 µM
XF 498 CNS
  TGI: 33.7 µM
HL-60(TB) leukemia
  TGI: > 55 µM
UO-31 renal
  TGI: 32.8 µM
DMS 114 small cell lung
  TGI: 29.1 µM
HT29 colon
  TGI: 31.6 µM
SK-OV-3 ovarian
  TGI: 33.5 µM
SF-268 CNS
  TGI: 32 µM
HCT-116 colon
  TGI: 30.9 µM
ACHN renal
  TGI: 35.8 µM
LOX IMVI melanoma
  TGI: 23.2 µM
UACC-257 melanoma
  TGI: > 54.1 µM
SK-MEL-28 melanoma
  TGI: 27.1 µM
SN12C renal
  TGI: 26.9 µM
HOP-18 NSCLC
  TGI: 31.1 µM
OVCAR-8 ovarian
  TGI: 36.6 µM
SNB-19 CNS
  TGI: 30.4 µM
HOP-92 NSCLC
  TGI: 23.5 µM
